The record followed here is patent publication US8815935B2, “Inhibitors of protein prenyltransferases” (The Regents of the University of California, priority 2008, dated 2014).

Assay [1] has as its system MCF7. Description: MCF7 cell growth inhibition. The settings on record: Homo sapiens, MCF7, Tables 8-15; no unit printed there. It is filed as cell-based, human. How it is done:
(§1) In FIG. 9-24 in vitro IC50 values for the GGTase I activity are reported. In Tables 7-15 in cell GI50 values for the growth inhibition of a variety of cancer cell lines (e.g., Jurkat, K562, MDA-MB-231, BT474, MCF7, MiaPaCa2, Aspc-1, Panc-1, Capan-2, CFpac-1, and MCF10a) are reported.
(§2) Cell viability was determined by Cell Counting Kit-8 (CCK-8, Dojindo, Kumamoto, Japan) as described previously (31). Cell viability was calculated relative to the DMSO control. Cell cycle profile was analyzed by flow cytometry as described previously (32).

The subject of assay [2] is MiaPaCa2. Description: MiaPaCa2 cell growth inhibition. It counts as cell-based, human. The settings on record: no unit printed there. As for the experimental part: as §1, §2
For assay [3], the system named is Capan-2. Description: Capan-2 cell growth inhibition. It counts as cell-based, human. The settings on record: no unit printed there. As for the experimental part:
as §1, §2

Assay [4] deals with BT474. The assay is described as follows: BT474 cell growth inhibition. The settings on record: no unit printed there. It is filed as cell-based, human. How it is done: as §1, §2
Assay [5] concerns MCF10a. The assay is described as follows: MCF10a cell growth inhibition. The settings on record: Homo sapiens, MCF-10A, Tables 8-15; no unit printed there. It counts as cell-based.
Description: as §1

Assay [6] deals with Jurkat cells. Description: Jurkat cell growth inhibition. It is filed as cell-based, human. The method in brief:
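Jurkat T-cell leukemia cells were exposed to compound for 72 h, with cell number counted and viability read by CCK-8 relative to the DMSO control. GI50 is the compound concentration giving 50% growth inhibition.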

Assay [7] deals with T1, GGTase-I (Rattus norvegicus, UniProt P53610+Q04631).
T1 construct: purchased JENA BIOSCIENCE
Description: In vitro GGTase-I enzyme assay (IC50, kinetics). It is filed as biochemical. The method in brief:
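Rat GGTase-I (50 nM) with 0.5 μM [3H]-GGPP and 2 μM MBP-RhoA in Tris-HCl pH 7.5, MgCl2, ZnCl2, DTT, 2.5% DMSO, 10 min at 30 °C; radiolabel incorporation by TCA filter binding and scintillation. Kinetics: 5 min reactions varying GGPP or RhoA at fixed other components.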

Assay [8] deals with Panc-1. Description: Panc-1 cell growth inhibition. It counts as cell-based, human. The settings on record: no unit printed there. How it is done: as §1
Panc-1 cells (Pancreatic cancer cell line) and Jurkat cells (T-cell leukemia) were treated with 12.5 μM of P5-H6 or 12.5 μM of mP5-H6a for 72 hours. The cell number was counted as described in Example 5.
as §2

Assay [9] relates to MDA-MB-231. The assay is described as follows: MDA-MB-231 cell growth inhibition. It is filed as cell-based, human. The settings on record: no unit printed there. As for the experimental part:
as §1, §2

The subject of assay [10] is CFpac-1. Description: CFpac-1 cell growth inhibition. It is filed as cell-based, human. The settings on record: no unit printed there. As for the experimental part: as §1, §2
Assay [11] has as its system K562 cells. The assay is described as follows: K562 cell growth inhibition. It counts as cell-based, human. The settings on record: no unit printed there. How it is done: K562 cells are a cell line of human erythroleukemia cells. The K562 cells were treated with P3-E5, P5-H6 or GGTI-298 (a known GGTI compound illustrated in FIG. 27) for 72 hours and then cell number was counted using cell counting kit-8 (Dojindo, Gaithersburg, Md.). Cell viability relative to the DMSO control and the known GGTI compound is plotted in FIG. 23.
as §2

Assay [12] has as its system Aspc-1. The assay is described as follows: Aspc-1 cell growth inhibition. It counts as cell-based, human. The settings on record: no unit printed there. How it is done: as §1, §2
Assay [13] addresses T2, FTase (Rattus norvegicus, UniProt Q02293+Q04631).
T2 construct: purchased JENA BIOSCIENCE
Description: In vitro FTase assay (K-Ras4B substrate, [3H]FPP). It is filed as biochemical. The settings on record: at concentrations at which GGTase-I was inhibited by more than 90%. From the text: To further characterize the pilot library, inhibitors of protein farnesyltransferase were identified. This was accomplished by using K-Ras4B as a substrate protein, tritiated farnesylpyrophosphate ([^3H]FPP) and protein farnesyltransferase. See Finegold, A. A., Johnson, D. I., Farnsworth, C. C., Gelb, M. H., Judd, S. R., Glomset, J. A. and Tamanoi, F. (1991) Protein geranylgeranyltransferase of Saccharomyces cerevisiae is specific for Cys-Xaa-Xaa-Leu motif and requires the CDC43 gene product but not the DPR1 gene product. Proc. Natl. Acad. Sci. USA 88, 4448-4452. […] On the other hand, the structure of the compounds P1-F11, P2-B7 and P2-E9 resemble those of GGTIs. The FTI P1-F11 resembles the GGTI P1-F10, while the FTI P2-B7 resembles the GGTI P2-C10. The FTI P2-E9 is similar to the GGTI P2-G3. Similarity of some GGTI and FTI compounds may point to common structural features between the two closely related enzymes. As described before, FTase and GGTase I have similar three-dimensional structures and a shared alpha subunit. On the other hand, FTase specific inhibitors may recognize a region(s) that is different between the two enzymes.
Examples 2-8 illustrate assays of bioactivity. These methods are applicable to the compounds of the present invention having the particular linkers and scaffolds described herein, to determine their activity. […] Varying concentrations of the two compounds were added to each enzyme reaction. The FTase (protein farnesyltransferase) assay was carried out using K-Ras4B as a substrate protein, FTase (JENA Bioscience, San Diego, Calif.) and [3H]farnesyl pyrophosphate. Incubation was for 30 min at 37° C.
GGTase-I and FTase activities were determined by following the incorporation of radiolabeled isoprenoid [^3H]-geranylgeranyl or [^3H]-farnesyl into substrate proteins. FTase or GGTase-I (50 nM) were used to initiate reactions containing 0.4 μM of [^3H]-FPP or 0.5 μM of [^3H]-GGPP and 2 μM of MBP-tagged substrates (K-Ras4B for FTase; RhoA for GGTase-I) in 20 μl of buffer {50 mM Tris-HCl (pH 7.5), 10 mM MgCl2, […] and 5 mM DTT}. Inhibitors were added at the indicated concentrations. The final DMSO concentration was 2.5% for all samples.
Reactions were carried out for 10 min at 30° C. The reaction mixture was spotted onto a filter paper, treated with 10% trichloroacetic acid (TCA) followed by ethanol and acetone washing. The filter was counted using a scintillation counter. Kinetic assays in which the GGPP concentration was varied employed fixed concentrations of GGTase-I and RhoA, and reactions were carried out for 5 min. Similarly, fixed concentrations of GGTase-I and GGPP were used when the amount of RhoA was varied.

Assay [14] concerns geranylgeranylated Rheb (Rheb-CSVL) in HEK 293 cells. Description: Rheb-CSVL mobility shift in HEK 293 cells. The settings on record: 48 hours. It counts as cell-based, human. From the text:
Finally, we investigated in vivo effects of compounds 22 (also known as UC-22) and 23 (also known as UC-23). Human embryonic kidney (HEK) 293 cells were transfected with the Rheb-CSVL construct that expresses the geranylgeranylated form of the Rheb protein. Inhibition of the geranylgeranylation of this protein can be detected from a shift in its mobility on SDS polyacrylamide gel; the unprocessed form appears as a slowly migrating band.
Human embryonic kidney (HEK) 293 cells expressing Myc-HA tagged-Rheb-CVSL (upper) or Myc-HA tagged-Rheb-WT (lower) were treated with P3-E5 for 48 hours and then lysed. The cell lysates were run on a SDS polyacrylamide gel and immunoblotted using anti-Myc or anti-Actin antibody. The descriptors P and U indicate processed and unprocessed Rheb, respectively.
Human embryonic kidney (HEK) 293 cells expressing Myc-HA tagged-Rheb-CVSL (upper) or Myc-HA tagged-Rheb-WT (lower) were treated with mP5-H6a (also referred to as mP5-H6), or GGTI-298 for 48 hours and then lysed. Lysates were run on a SDS polyacrylamide gel and immunoblotted with anti-Myc or anti-Actin antibody.

For orientation: GI50 means the concentration that inhibits growth by half. By IC50 is commonly meant the midpoint of a concentration-inhibition curve.

Like-named read-outs stand apart in the source and are kept apart here.

As for `Cc1ccccc1S(=O)(=O)N1[C@@H](c2ccc(Cl)c(Cl)c2)C(C(=O)N[C@@H](Cc2ccccc2)C(N)=O)=C[C@H]1C(C)(C)C` [P61-B11], the GI50 was 4.74 µM in [1]; 7.49 µM in assay [2] (Tables 8-15); 11.3 µM in assay [3] (Tables 8-15); 10.6 µM in assay [4] (Tables 8-15); 9.38 µM in assay [5]; 6.9 µM in assay [6] (Tables 4, 6, 7, read-out: Jurkat cell GI50). Also, the 50% growth inhibitory concentration (GI50) in [6] (Tables 8-15, no unit printed there, read-out: Jurkat GI50) stood at 6.9 µM; in assay [8] (Tables 8-15) it was 7.52 µM; in assay [9] (Tables 8-15), 5.54 µM; in [10] (Tables 8-15), 2.03 µM; in assay [11] (Tables 8-15), 6.9 µM; in assay [12] (Tables 8-15), 11.5 µM. In addition, the IC50 amounted to 7.6 µM in [7] (Tables 3, 5, 7, read-out: In vitro (enzyme assay) IC50, GGTase I) and 7.6 µM in assay [7] (Tables 8-15, no unit printed there (Table 7 head: μM unless otherwise specified), read-out: In vitro (GGTase I IC50)).
As to `Cc1ccccc1S(=O)(=O)N1[C@@H](c2ccc(Cl)cc2)C(C(=O)N[C@@H](Cc2ccccc2)C(N)=O)=C[C@H]1C(C)(C)C` [P61A6], the concentration for 50% growth inhibition (GI50) in [1] amounted to 3.72 µM; in assay [2] (Homo sapiens, MIA PaCa-2, Tables 8-15) it was 7.48 µM; in assay [3] (Homo sapiens, Capan-2, Tables 8-15) it was 11.5 µM; in assay [4] (Homo sapiens, BT-474, Tables 8-15), 8.64 µM; in assay [5], 13.2 µM; in assay [6] (Homo sapiens, Jurkat, Tables 8-15, no unit printed there, read-out: Jurkat GI50) it was 4.89 µM. In addition, the concentration for 50% growth inhibition (GI50) is 13 µM in [8] (Homo sapiens, PANC-1, Tables 8-15); 8.25 µM in assay [9] (Homo sapiens, MDA-MB-231, Tables 8-15); 6.38 µM in assay [10] (Homo sapiens, CFPAC-1, Tables 8-15); 6.28 µM in assay [11] (Homo sapiens, K562, Tables 8-15); 12.4 µM in assay [12] (Homo sapiens, ASPC1, Tables 8-15).
For `Cc1ccccc1S(=O)(=O)N1[C@@H](c2ccc(Cl)cc2)C(C(=O)O)=C[C@H]1C(C)(C)C` [compound 22], in assay [13], the “inhibition of FTase” value is given as “did not inhibit FTase”. Besides, the “inhibition of geranylgeranylation of Rheb-CSVL (slowly migrating unprocessed band)” value in assay [14] is reported as “inhibit geranylgeranylation within the cell”.
For `Cc1ccccc1S(=O)(=O)N1C(c2ccc(Cl)cc2)CC=C(C(=O)O)[C@@H]1c1cccc(Cl)c1` (some centres unmarked) [compound 23] the same measures were “did not inhibit FTase” and “inhibit geranylgeranylation within the cell”.
